These results are taken from patent US7214663B2, “Tripeptide prodrug compounds” (Medarex, Inc., priority 2001, dated 2007).

This assay has as its system human colon carcinoma (LS174T). In words: LS174T xenograft efficacy study.

Structures are written as SMILES.

Description: Healthy young female nude mice were subcutaneously implanted with chunks of LS174T. […] Tumor size and body weights were measured twice weekly for up to 60 days.

With `COc1cccc2c1C(=O)c1c(O)c3c(c(O)c1C2=O)C[C@@](O)(C(=O)CO)C[C@@H]3O[C@H]1C[C@H](NC(=O)[C@H](CC(C)C)NC(=O)[C@H](C)NC(=O)[C@H](CC(C)C)NC(=O)CCC(=O)O)[C@H](O)[C@H](C)O1` [Suc-Leu-Ala-Leu-Dox], the “Mean Day of Survival” value is on record as 20 days (52 mg/kg every 5 days for 5 doses) and 32 days (63 mg/kg every 5 days for 5 doses). The “anti-tumor activity in LS174T xenograft” value (doxorubicin-insensitive model) is given as “decreased the rate of tumor growth considerably”.
